The values that follow come from article PMC6917776, “Discovery of a chemical probe for PRDM9” (Nature Communications, 2019).

One series addresses T1, G9a (Homo sapiens, UniProt Q96KQ7).
T1 construct: purchased Structural Genomics Consortium (SGC Toronto) in-house methyltransferase panel
T1 sequence (Q96KQ7 1-1210): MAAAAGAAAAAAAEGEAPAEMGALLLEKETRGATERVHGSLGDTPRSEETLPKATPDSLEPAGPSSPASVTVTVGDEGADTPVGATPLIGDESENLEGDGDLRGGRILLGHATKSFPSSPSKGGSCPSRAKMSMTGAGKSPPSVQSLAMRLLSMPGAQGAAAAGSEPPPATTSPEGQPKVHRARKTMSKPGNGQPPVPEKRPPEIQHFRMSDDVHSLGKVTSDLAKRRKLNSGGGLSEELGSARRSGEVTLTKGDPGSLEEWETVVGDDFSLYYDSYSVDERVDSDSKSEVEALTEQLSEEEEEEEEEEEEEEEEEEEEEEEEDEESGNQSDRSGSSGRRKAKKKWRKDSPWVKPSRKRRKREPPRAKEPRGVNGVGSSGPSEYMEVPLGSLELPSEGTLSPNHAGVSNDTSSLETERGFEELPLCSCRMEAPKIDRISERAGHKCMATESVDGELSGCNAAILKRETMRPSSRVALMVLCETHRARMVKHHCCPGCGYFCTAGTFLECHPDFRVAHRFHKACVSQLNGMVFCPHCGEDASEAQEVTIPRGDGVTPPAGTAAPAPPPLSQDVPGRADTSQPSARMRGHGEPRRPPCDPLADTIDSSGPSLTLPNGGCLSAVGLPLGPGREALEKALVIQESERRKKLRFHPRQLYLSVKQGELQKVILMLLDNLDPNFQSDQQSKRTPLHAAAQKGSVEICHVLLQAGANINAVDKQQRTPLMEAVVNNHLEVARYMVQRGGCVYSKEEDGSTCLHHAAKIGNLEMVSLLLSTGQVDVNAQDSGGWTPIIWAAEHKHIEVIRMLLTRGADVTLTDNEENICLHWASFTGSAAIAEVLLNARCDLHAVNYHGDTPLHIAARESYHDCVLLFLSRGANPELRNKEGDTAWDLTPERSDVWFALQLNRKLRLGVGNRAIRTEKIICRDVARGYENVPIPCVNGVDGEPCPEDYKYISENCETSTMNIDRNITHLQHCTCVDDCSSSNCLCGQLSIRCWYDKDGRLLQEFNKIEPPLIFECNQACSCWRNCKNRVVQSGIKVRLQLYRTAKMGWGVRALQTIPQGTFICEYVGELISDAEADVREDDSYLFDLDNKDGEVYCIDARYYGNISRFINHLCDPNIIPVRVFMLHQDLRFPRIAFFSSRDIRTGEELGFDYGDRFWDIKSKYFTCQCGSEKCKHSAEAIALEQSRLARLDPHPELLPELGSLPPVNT
Briefly: Methyltransferase selectivity assay (SPA). It counts as biochemical. Here is the method:
Selectivity against methyltransferases were determined as described previously. Details of the assays are described in the supplementary methods.
Methyltransferase selectivity assay1
The effect of chemical probes and negative controls on the methyltransferase activities of protein, DNA and RNA methyltransferases was tested by radiometric assays using 3H-SAM. For proteins such as MLL1 trimeric, MLL3 pentameric, EZH1 (PRC2) pentameric, and EZH2 (PRC2) trimeric complexes, as well as G9a, GLP, SUV39H1, SUV39H2, SUV420H1, SUV420H2, SETD2, SETD8, SETDB1, SETD7, PRMT1, PRMT3, PRMT4, PRMT5/ MEP50 complex, PRMT6, PRMT7, PRMT8, PRMT9, PRDM9, SMYD2, SMYD3, DNMT1, and BCDIN3D the incorporation of a tritium-labeled methyl group into biotinylated substrate was monitored using scintillation proximity assay (SPA). Briefly, a 10 µL reaction containing 3H-SAM and substrate at concentrations close to the apparent Km values for each enzyme (balanced conditions) was prepared. The reactions were quenched with 10 µL of 7.5 M guanidine hydrochloride; 180 µL of 20 mM Tris buffer (pH 8.0) were added, and the mixture was transferred to a 96-well FlashPlate and incubated for 1 h. The counts per minute (CPM) was measured on a TopCount plate reader. The CPM in the absence of compound or enzyme was defined as 100% activity and background (0%), respectively, for each dataset. For DNMT1, the double-stranded DNA substrate was prepared by annealing two complementary strands (biotinylated forward strand: B-[…] and reverse strand:
) that were synthesized by Eurofins MWG Operon
For proteins which were tested with nucleosome as substrate such as DOT1L, NSD1, NSD2, NSD3, and ASH1L, or unbiotinylated Poly(2′-deoxyinosinic-2′-deoxycytidylic acid) (Cat# 81349-500UG, Sigma Aldrich) such as DNMT3A/3L, and DNMT3B/3L, a filter-based assay was used. In this assay, a trichloroacetic acid (TCA) protein precipitation protocol was employed. A 10 µL reaction mixture was incubated at 23°C for 1 h, followed by addition of 50 µL of 10% TCA. The mixture was transferred to filter plates (Millipore, Billerica, MA, USA) that were centrifuged at 2000 rpm (Allegra X-15R; Beckman Coulter, Brea, CA, USA) for 2 min. Samples were washed twice with 10% TCA and once with ethanol (180 µL), and centrifuged. After drying, 100 µL MicroScint-O (Perkin Elmer) was added to each well and the plates were centrifuged to remove the liquid. A 70 µL volume of MicroScint-O was added and the CPM was measured with a TopCount plate reader.

The test system of the next series is MCF7 cells. Briefly: Cell growth, IncuCyte ZOOM cell number. The class given is cell-based. The settings on record: for Cell growth (Cell#): MCF7, 5 day treatment, technical replicates. The procedure:
HEK293T or MCF7 cells were seeded on 96-well plates and the following day treated with compounds for indicated time. Cell number was determined with Vybrant® DyeCycle™ Green using IncuCyte™ ZOOM live cell imaging device (Essen Bioscence) and analyzed with IncuCyte™ ZOOM (2015A) software.
(top graphs) and MCF7 cells (bottom graph). Cells were treated with compounds for 2 and 4 days or 5 days in case of MCF7. Cell number was measured using IncuCyte™ ZOOM live cell imaging device. The results are MEAN +/- SEM, n=3 (technical replicates). Source data are provided as a Source Data file.
(1 picture or pasted object on this page, not shown here)

“And” between values parts separate entries of the source, which are not always exact repeats. Equal entries are not always repeated. Where two headings read alike, the source gives them in different places.

As for `COc1cc(OC)cc(-c2noc(N3CCN(C)C4(CCN(c5ccccc5)CC4)C3)n2)c1` [MRK-740 -NC], the activity at 1 µM at G9a (1µM compound, Exp1, Exp2) amounted to 101%. The Activity % on G9a (1µM compound, Exp1, Exp2, 1 µM) is given as 100%; at G9a (10µM compound, Exp1, Exp2, 10 µM) it was 93%. Also, the activity at 10 µM at G9a (10µM compound, Exp1, Exp2) is 95%.
As to `COc1cc(OC)cc(-c2noc(N3CCN(C)C4(CCN(c5ccnc(C)c5)CC4)C3)n2)c1` [MRK-740], the “MCF7 cell viability (in words)” value in the series on MCF7 cells (10 µM, 5-day proliferation assay) is listed as “minimal impact on MCF7 cell viability”. For the same compound, the “Cell growth (Cell#)” value in the series on MCF7 cells (0.3 µM) is 106.53 % control and 74.2747 % control and 75.9554 % control; in the series on MCF7 cells (1 µM), 111.892 % control and 99.8066 % control and 82.4385 % control; with MCF7 cells (3 µM), 103.969 % control and 69.7125 % control and 102.608 % control; with MCF7 cells (10 µM), 66.6711 % control and 77.6362 % control and 64.0299 % control; in the series on MCF7 cells (20 µM), 36.7371 % control and 35.4566 % control and 42.0196 % control. On G9a (1µM compound, Exp1, Exp2, 1 µM), this compound gave an Activity % of 89%. At G9a (1µM compound, Exp1, Exp2, read-out: Activity %), the activity at 1 µM worked out at 93%. In addition, the activity at 10 µM at G9a (10µM compound, Exp1, Exp2, read-out: Activity %) was 94%.
